Experimental data published in US6890716B1, “Recombinant cell line and screening method for identifying agents which regulate apoptosis and tumor suppression” (Howard Hughes Medical Institute, priority 1998, dated 2005).

Legend:
p53A cells = assay: Apoptotic morphology of transfected cells by indirect immunofluorescence at the permissive temperature; type: cell-based, rat; conditions: 24 μg plasmid DNA, permissive temperature (FIG. 9)
Experimental: Apoptotic morphology was assessed by scoring for cells that are positive by fluorescence microscopy and are rounded and non adherent.
In addition, we determined the percentage of cells with apoptotic morphology that were ectopically expressing wild-type p300 ectopically or the E1A-binding mutant of p300 following transient transfection with 24 μg of plasmid DNA. Apoptotic morphology was determined by counting cells that were rounded in shape and detaching from the dish. The percentage of cells with apoptotic morphology transiently expressing a control protein, a fragment of the lamin A protein (Rao et al. 1996), compared to p300 and mutant p300 transfected p53A cells at the permissive temperature was determined by indirect immunofluorescence.

mdm2 in p53A cells = assay: Up-regulation of endogenous Mdm2 by indirect immunofluorescence; type: cell-based, rat; conditions: indirect immunofluorescence (FIG. 7)
Experimental: Cells were fixed in cold methanol prior to incubation with primary antibodies. Subsequent to several washes in PBS, cells were incubated with rhodamine-conjugated goat anti-mouse antibody or fluorescein-conjugated goat anti-rabbit antibody. Cells were then washed, mounted and analyzed by fluorescence microscopy using a Nikon FXA epifluorescence microscope.
The indicated amount of plasmid DNA was transfected by electroporation. After transfection, cells were incubated at 37.5° C. for 24 hours to recover, and were then shifted to 32° C. for 24 hours before analysis for viability by trypan blue staining and apoptotic morphology. […]
We next attempted to rescue p53A cells from apoptosis at the permissive temperature by ectopically expressing p300. Vector alone, wild-type p300 and a functional but truncated form of p300 with a deletion of E1A binding domain (Arany et al. 1994), were transiently transfected in p53A cells. p53-dependent apoptosis was examined at the permissive temperature 48 hours post-transfection. p53A cells transiently expressed the exogenous wild-type p300 and the E1A binding mutant form of p300, neither of which were detected in mock transfected cells. The up-regulation of mdm2 in p300 transfected cells was not detected by Western blot analysis above endogenous levels (FIG. 6) because the transfection efficiency was low in transient assays. […]

[1] = molecular target: temperature sensitive p53 (val135) mutant expressed in p53A cells (UniProt P02340); assay: cell-based or functional assay
[2] = test system: GAL-4 luciferase reporter construct in HeLa cells; assay: Transcriptional reporter assay (GAL-4 luciferase reporter); type: cell-based
Experimental: Transcriptional reporter assays were performed as described previously (Catron, et al., 1995). HeLa cells were plated onto 60 mm tissue culture dishes and grown to 50-75% confluency. The cells were then transfected with 2.5 μg of a GAL-4 luciferase reporter construct (kindly provided by Dr. C. Abate-Shen, Center for Advanced Biotechnology and Medicine, Piscataway, N.J.) along with 2.5 μg of both a pm1 vector (BtfS, BtfS-N552 or BtfS-C210) and a bcl-2 family gene (pCMV-E1B 19K, pcDNA3-Bcl-2, or pcDNA3-Flag-Bcl-xL). DNA concentrations were kept constant using appropriate empty vectors, either pm1 or pcDNA3. The cells were transfected using SuperFect (Qiagen, Valencia, Calif.) according to the manufacturer's specifications and harvested 24 hours post-transfection. Expression of mutant and wild-type BtfS proteins were verified by immunofluorescence using an antibody against the GAL-4 DNA-binding domain (Clontech, San Fransisco, Calif.). Luciferase activity was determined using the Luciferase Assay System (Promega Corp., Madison, Wis.) measured in a scintillation counter, and then normalized for protein concentrations measured by a Bradford assay. […]
To address these issues, BtfS was cloned into a mammalian expression vector (pm1) containing the GAL-4 DNA binding domain. Transcriptional activity was monitored using a reporter construct containing GAL-4 promoter sites. […]

mutant p300: Functional but truncated p300 with deletion of the E1A binding domain (pCMVβp300Δ30)
percentage of expressing cells with apoptotic morphology (p53A cells): 8% | transfected cells showing up-regulation of Mdm2 (mdm2 in p53A cells): 90%

mutant mdm2 with deletion of the N-terminal p53-binding domain (pCOC-ΔXM / pCMVβ-ΔXM) (from UniProt P23804 102-489)
percentage of apoptotic cells (morphology, indirect immunofluorescence) among p53A cells expressing the protein [1]: 30%

wild-type mdm2 (pCOC-X2 / pCMVβ-X2) (from UniProt P23804 1-489)
percentage of apoptotic cells (morphology, indirect immunofluorescence) among p53A cells expressing the protein [1]: 10%

wild-type p300: Transcriptional coactivator p300, HA-tagged, expressed from pCMVβp300
percentage of expressing cells with apoptotic morphology (p53A cells): 4% | transfected cells showing up-regulation of Mdm2 (mdm2 in p53A cells): 90%

B1: ΔC210: Deletion mutant of BtfS, amino acids 1-210, cloned into pm1 (protein, UniProt Q9NYF8 1-210, looked up, fragment)
chain: MGRSNSRSHSSRSKSRSQSSSRSRSRSHSRKKRYSSRSRSRTYSRSRSRDRMYSRDYRRDYRNNRGMRRPYGYRGRGRGYYQGGGGRYHRGGYRPVWNRRHSRSPRRGRSRSRSPKRRSVSSQRSRSRSRRSYRSSRSPRSSSSRSSSPYSKSPVSKRRGSQEKQTKKAEGEPQEESPLKSKSQEEPKDTFEHDPSESIDEFNKSSATSG
modifications: BtfS isoform
notes: Deletion mutant of BtfS, amino acids 1-210, cloned into pm1
ability to repress transcription (in words) ([2]; pm1 GAL-4 DNA-binding domain fusions (FIG. 27)): sufficient for repression and nearly as potent as full-length BtfS

B2: pm1-BtfS: BtfS fused to the GAL-4 DNA binding domain in mammalian expression vector pm1 (protein)
chain: MKLLSSIEQACDICRLKKLKCSKEKPKCAKCLKNNWECRYSPKTKRSPLTRAHLTEVESRLERLEQLFLLIFPREDLDMILKMDSLQDIKALLTGLFVQDNVNKDAVTDRLASVETDMPLTLRQHRISATSSSEESSNKGQRQLTVSMGRANSRSHSSRSKSRSQSSSRSRSRSHSRKKRYRSRSRTYSRSRSRDRMYSRDYRRDYRNNRGMRRPYGYRGRGRGYYQGGGGRYHRGGYRPVWNRRHSRSPRRGRSRSRSPKRRSVSSRSRSRSRRSYRSSRSPRSSSSRSSSPYSKSPVSKRRGSQEKQTKKAEGEPQEESPLKSKSQEEPKDTFEHDPSESIDEFNKSSATSGDIWPGLSAYDNSPRSPHSPSPIATPPSQSSSCSDAPMLSTVHSAKNTPSQHSHSIQHSPERSGSGSVGNGSSRYSPSQNSPIHHIPSRRSPAKTIAPQNAPRDESRGRSSFYPDGGDQETAKTGKFLKRFTDEESRVFLLDRGNTRDKEASKEKGSEKGRAEGEWEDQEALDYFSDKESGKQKFNDSEGDDTEETEDYRQFRKSVLADQGKSFATASHRNTEEEGLKYKSKVSLKGNRESDGFREEKNYKLKETGYVVERPSTTKDKHKEEDKNSERITVKKETQSPEQVKSEKLKDLFDYSPPLHKNLDAREKSTFREESPLRIKMIASDSHRPEVKLKMAPVPLDDSNRPASLTKDRLLASTLVHSVKKEQEFRSIFDHIKLPQASKSTSESFIQHIVSLVHHVKEQYFKSAAMTLNERFTSYQKATEEHSTRQKSPEIHRRIDISPSTLRKHTRLAGEERVFKEENQKGDKKLRCDSADLRHDIDRRRKERSKERGDSKGSRESSGSRKQEKTPKDYKEYKSYKDDSKHKREQDHSRSSSSSASPSSPSSREEKESKKEREEEFKTHHEMKEYSGFAGVSRPRGTFFRIRGRGRARGVFAGTNTGPNNSNTTFQKRPKEEEWDPEYTPKSKKYFLHDDRDDGVDYWAKRGRGRGTFQRGRGRFNFKKSGSSPKWTHDKYQGDGIVEDEEETMENNEEKKDRRKEEKE
decrease in transcription compared to empty pm1 vector control ([2]; 24 hours post-transfection (FIG. 27)): ~10 fold
